Assay results reported in US11827624B2, “Covalent immune recruiter compounds for immune cell recognition and associated uses” (McMaster University, priority 2020, dated 2023).

Tested on: PSMA+HEK cells
Experiment: Luminescence ADCC reporter (CD16α activation) assay with mmAb
Type: cell-based, human
Details: antibody 10^−7-10^−9 M
Method: Covalent vs. non-covalent antibody recruitment were compared in functional immune assays. Activation of NK cell CD16α immune receptors was assessed via luminescence based ADCC assays. ADCC was quantified using the ADCC Reportor Bioassay kit (Promega G7010). All ADCC induced luminescence was measured on a SpectraMax i3 plate reader (Molecular Devices). The human IgG isotype control used was purchased from Jackson ImmunoResearch (009-000-003). The human IgG1 monoclonal anti-DNP antibody (mAb) was purchased from Acrobiosystems (DNP-M2). Human IgG from serum was purchased from Innovative Research ([…]1000MG). Anti-DNP depleted serum was made from human IgG from serum (Innovative Research). For PSMA competition controls, 2-PMPA was purchased from Sigma (SML1612). Hek-293T (PSMA+/−) cell lines were generously given by Dr. Cyril Barinka (Institute of Biotechnology CAS, Czech Republic). Ultra low IgG FBS was purchased from Fischer Scientific (A3381901). RPMI-1640 was purchased as a powder from Fischer Scientific (31800089) and resuspended. DMEM was purchased as a powder from Fischer Scientific (12800082) and resuspended. Pen/Strep was purchased from Fischer Scientific (15140-122). FBS was purchased from Fischer Scientific (12484-028). Zeocin was purchased from Fischer Scientific (R25001). HEK-PSMA cells were cultured in DMEM media with 2 mM L-glut, 1% Pen/Strep, 10% FBS, 50 ug/mL Zeocin. HEK cells were cultured in DMEM media with 2 mM L-glut, 1% Pen/Strep, 10% FBS.
Preparation of antibody-CIR/ARM stocks were mixed overnight prior to addition to the ADCC plate. In the case of mmAb and mAb, incubation was carried out at 600 nM antibody and 1.2 μM CIR or ARM. In the case of IgG from serum, incubation was completed at 230 μM antibody and 8.7 μM CIR or ARM. In all cases, DMSO was kept close to 1%. After the overnight incubation, a dilution series was completed on the antibody-CIR/ARM stocks in RPMI (1% DMSO). […] 75 μL of Bio-Glo Luciferase Assay Reagent was added to each well, and luminescence was quantified using the SpectraMax i3 plate reader. […]

O=C(O)CC[C@H](NC(=O)N[C@@H](CCCCNC(=O)NCCOCCOCCOCCOCCOCCOCCOCCOC(=O)n1cnc(CCNC(=O)CNc2ccc([N+](=O)[O-])cc2[N+](=O)[O-])c1)C(=O)O)C(=O)O [CIR 3]
CD16α based target immune recognition: robust target immune recognition
